Measured values as given in publication PMC6736568, “Discovery of Novel Anti-cryptosporidial Activities From Natural Products by in vitro High-Throughput Phenotypic Screening” (Frontiers in Microbiology, 2019).
Where two headings read alike, the source gives them in different places.

Columns and labels:
Cryptosporidium parvum = assay: qRT-PCR assay of the growth of C. parvum in vitro in HCT-8 host cells (primary and secondary screening, EC50); assay type: cell-based; conditions: for % Inhibition (3.3 uM): secondary screening at 3.3 uM
[1] = primary screening at 10 uM, from Hs18S ΔCT
[2] = primary screening at 10 uM, treated vs control

SMILES	Cytotoxicity (%) (HCT-8 host cells (Hs18S); [1])	Hs18S ΔCT (HCT-8 host cells (Hs18S); [2])	Inhibition (%) (Cryptosporidium parvum; primary screening at 10 uM)	% Inhibition (3.3 uM) (Cryptosporidium parvum)	Hs18S ΔCT (HCT-8 host cells (Hs18S))	inhibition at 10 µM (Cryptosporidium parvum; Cryptosporidium parvum, HCT-8)	Cytotoxicity (%) (HCT-8 host cells (Hs18S); 10 µM)	Inhibition (%) (Cryptosporidium parvum; 10 µM)
CS(C)(=O)=O [DIMETHYLSULFONE]	46.5%	0.90	65.78%	61%	–	–	–	–
N[C@@H](CSCSC[C@H](N)C(=O)O)C(=O)O [DJENKOLIC ACID]	0.2%	0.00	23.33%	–	–	–	–	–
C[C@]12CC[C@H](O)C[C@@H]1CC[C@@H]1[C@@H]2CC[C@]2(C)C(=O)CC[C@@H]12 [EPIANDROSTERONE]	–	–	–	–	-0.05	-36%	–	–
O=C(O[C@@H]1Cc2c(O)cc(O)cc2O[C@@H]1c1ccc(O)c(O)c1)c1cc(O)c(O)c(O)c1 [EPICATECHIN MONOGALLATE]	23.1%	0.38	6.24%	–	–	–	–	–
O=C(O[C@@H]1Cc2c(O)cc(O)cc2O[C@@H]1c1cc(O)c(O)c(O)c1)c1cc(O)c(O)c(O)c1 [EPIGALLOCATECHIN-3-MONOGALLATE]	-14.2%	-0.19	10.02%	–	–	–	–	–
O=C(O)c1cc(O)c(=O)c2c(O)c(O)cc([C@H]3Oc4cc(O)cc(O)c4C[C@H]3O)c2c1 [EPITHEAFLAVIC ACID]	–	–	-9.36%	–	–	–	6.9%	–
CC(=O)O[C@@H]1CC2C(C)(C)C(=O)C3OC3[C@]2(C)C2CC[C@@]3(C)[C@H](c4ccoc4)OC(=O)C4OC43[C@@]21C (stereo partly drawn) [EPOXYGEDUNIN]	-37.3%	-0.46	29.04%	–	–	–	–	–
CC(=O)O[C@H]1CC[C@@]2(C)C(=CC=C3[C@@H]4CC[C@H]([C@H](C)/C=C/[C@H](C)C(C)C)[C@@]4(C)CC[C@@H]32)C1 [ERGOSTEROL ACETATE]	3.7%	0.06	-10.68%	–	–	–	–	–
O=C[C@H](O)[C@H](O)CO [ERYTHROSE]	14.6%	0.23	57.20%	–	–	–	–	–
O.O=c1ccc2cc(O[C@@H]3OC(CO)[C@@H](O)[C@@H](O)C3O)c(O)cc2o1 (stereo partly drawn) [ESCULIN MONOHYDRATE]	-34.0%	-0.42	10.62%	–	–	–	–	–
COc1c(-c2ccccc2)oc2cc(O)cc(O)c2c1=O [GALANGIN 3-O-METHYL ETHER]	–	–	-5.04%	–	–	–	-45.3%	–
COc1cc(OC)c2c(=O)c(OC)c(-c3ccccc3)oc2c1 [GALANGIN TRIMETHYL ETHER]	8.8%	0.13	-18.22%	–	–	–	–	–
NC(=O)CC[C@H](N)C(=O)O [GLUTAMINE (D)]	-11.8%	-0.16	2.46%	–	–	–	–	–
CC1(C)[C@@H](O[C@H]2O[C@H](C(=O)O)[C@@H](O)[C@H](O)[C@H]2O[C@@H]2O[C@H](C(=O)O)[C@@H](O)[C@H](O)[C@H]2O)CC[C@]2(C)[C@H]3C(=O)C=C4[C@@H]5C[C@@](C)(C(=O)O)CC[C@]5(C)CC[C@@]4(C)[C@]3(C)CC[C@@H]12.N [GLYCYRRHIZIC ACID, AMMONIUM SALT]	-43.6%	-0.52	1.41%	–	–	–	–	–
O=c1c(O)c(-c2ccc(O)c(O)c2)oc2c(O[C@@H]3O[C@H](CO)[C@@H](O)[C@H](O)[C@H]3O)c(O)cc(O)c12 [GOSSYPIN]	-4.8%	-0.07	-22.05%	–	–	–	–	–
CC(=O)O.Cc1cc2c(C(C)C)c(O)c(O)c(C=O)c2c(O)c1-c1c(C)cc2c(C(C)C)c(O)c(O)c(C=O)c2c1O [GOSSYPOL-ACETIC ACID COMPLEX]	-7.1%	-0.10	-21.55%	–	–	–	–	–
C[C@H]1CC[C@@H](C(C)(C)O)CC2=C1CC[C@@H]2C [GUAIOL(-)]	–	–	–	–	0.20	–	12.7	-22.71
CC(=O)Oc1cc2c(cc1OC(C)=O)[C@@H]1c3ccc(OC(C)=O)c(OC(C)=O)c3OC[C@]1(OC(C)=O)C2 [HAEMATOXYLIN PENTAACETATE]	12.3%	0.19	-26.73%	–	–	–	–	–
COc1ccc([C@@H]2CC(=O)c3c(O)cc(O[C@@H]4O[C@H](CO[C@@H]5O[C@@H](C)[C@H](O)[C@@H](O)[C@H]5O)[C@@H](O)[C@H](O)[C@H]4O)cc3O2)cc1O [HESPERIDIN]	21.5%	0.35	66.25%	36%	–	–	–	–
COc1ccc(-c2oc3cc(OC)c(OC)c(OC)c3c(=O)c2OC)cc1OC [HEXAMETHYLQUERCETAGETIN]	50.3%	1.01	95.76%	-42%	–	–	–	–
O=c1cc(-c2cc(O)c(O)c(O)c2)oc2cc(O)cc(O)c12 [HIERACIN]	–	–	-2.75%	–	–	–	31.0%	–
COc1ccc2c(c1OC)C(=O)O[C@@H]2[C@H]1c2cc3c(cc2CCN1C)OCO3 [HYDRASTINE (1R, 9S)]	–	-0.18	-23.62%	–	–	–	–	–
CC(=O)[C@@]1(O)CC[C@H]2[C@@H]3CCC4=CC(=O)CC[C@]4(C)[C@H]3CC[C@@]21C [HYDROXYPROGESTERONE]	22.7%	0.37	-50.17%	–	–	–	–	–

SMILES	Cytotoxicity (%) (HCT-8 host cells (Hs18S); [1])	Hs18S ΔCT (HCT-8 host cells (Hs18S); [2])	Inhibition (%) (Cryptosporidium parvum; primary screening at 10 uM)	% Inhibition (3.3 uM) (Cryptosporidium parvum)	Hs18S ΔCT (HCT-8 host cells (Hs18S))	inhibition at 10 µM (Cryptosporidium parvum; Cryptosporidium parvum, HCT-8)	Cytotoxicity (%) (HCT-8 host cells (Hs18S); 10 µM)	Inhibition (%) (Cryptosporidium parvum; 10 µM)
COc1ccc2c(=O)c(-c3ccc(O)cc3)coc2c1 [ISOFORMONONETIN]	-21.7%	-0.28	-7.36%	–	–	–	–	–
CC1(C)C=Cc2c(c3c(c4c(=O)c(-c5ccc(O)cc5)coc24)OC(C)(C)CC3)O1 [ISOOSAJIN]	-18.5%	-0.24	96.83%	39%	–	–	–	–
C[C@H]1O[C@H](OC2[C@@H](O)[C@@H](O)C(O)[C@H](O)[C@H]2O)[C@@H](N)C[C@@H]1N=C(N)C(=O)O.Cl (stereo partly drawn) [KASUGAMYCIN HYDROCHLORIDE]	-1.2%	-0.02	47.53%	–	–	–	–	–
C=CCSC[C@H](N)C(=O)O [L-DEOXYALLIIN]	-21.9%	-0.29	38.80%	–	–	–	–	–
CC(=O)NCCc1ccc(O)c(-c2c(O)c(O)c3c(c2O)C(=O)c2c(cc(O)c(C(=O)O)c2C(=O)O)C3=O)c1 [LACCAIC ACID A]	-6.6%	–	21.81%	–	–	–	–	–
O=C(O)[C@H](O)[C@@H](O)[C@H](O[C@@H]1O[C@H](CO)[C@H](O)[C@H](O)[C@H]1O)[C@H](O)CO [LACTOBIONIC ACID]	-27.5%	-0.35	-17.48%	–	–	–	–	–
O.OC[C@H]1O[C@@H](O[C@H]2[C@H](O)[C@@H](O)[C@@H](O)O[C@@H]2CO)[C@H](O)[C@@H](O)[C@H]1O [LACTOSE MONOHYDRATE]	–	0.02	31.71%	–	–	–	–	–
C[C@@H]1CC[C@H]2[C@](C)(CO)[C@@H](O)CC[C@]2(C)[C@@]12CC[C@@](CO)(CCO)O2 [LAGOCHILIN]	34.1%	0.60	9.20%	–	–	–	–	–
CC(=O)O[C@H]1CC[C@]2(C)C3=C(CC[C@H]2C1(C)C)[C@]1(C)CC[C@H]([C@H](C)CCC=C(C)C)[C@@]1(C)CC3 [LANOSTEROL ACETATE]	-2.8%	-0.04	-3.78%	–	–	–	–	–
Cc1occc(=O)c1O [LARIXINIC ACID]	12.9%	0.20	59.78%	–	–	–	–	–
C=C[C@@](C)(O)CC[C@H]1C(=C)C[C@H](O)[C@H]2C(C)(C)CCC[C@]12C [LARIXOL]	2.2%	0.03	31.41%	–	–	–	–	–
CC(C)CCC[C@@H](C)[C@H]1CC[C@H]2C3=CC[C@H]4C[C@@H](O)CC[C@]4(C)[C@H]3CC[C@]12C [LATHOSTEROL]	21.4%	0.35	-50.10%	–	–	–	–	–
O=C1CCC[C@@H]2[C@H]3C[C@@H](CN12)[C@@H]1CCCCN1C3.[O-][Cl+3]([O-])([O-])O [LUPANINE PERCHLORATE]	-6.1%	-0.09	10.49%	–	–	–	–	–
C=C(C)[C@@H]1CC[C@]2(C)CC[C@]3(C)[C@H](CC[C@@H]4[C@@]5(C)CC[C@H](OC(C)=O)C(C)(C)[C@@H]5CC[C@]43C)[C@@H]12 [LUPEOL ACETATE]	-12.1%	-0.17	25.85%	–	–	–	–	–
COc1cc2oc3cc(OC)c(OC)c(CC=C(C)C)c3c(=O)c2c(OC)c1CC=C(C)C [MANGOSTIN TRIMETHYL ETHER]	–	–	-8.08%	–	0.00	–	-0.1	–
OC[C@H]1O[C@H](OCC2O[C@@H](O)[C@H](O)[C@@H](O)[C@@H]2O)[C@H](O)[C@@H](O)[C@H]1O (stereo partly drawn) [MELIBIOSE]	-4.0%	-0.06	-16.19%	–	–	–	–	–
COC(=O)/C(C)=C\C[C@@]12OC(C)(C)[C@@H]3C[C@@H](C=C4C(=O)c5c(OC)c6c(c(CC=C(C)C)c5O[C@]431)O[C@](C)(CCC=C(C)C)C=C6)C2=O [METHYL GAMBOGATE METHYL ETHER]	22.4%	0.37	23.61%	–	–	–	–	–
COC(=O)/C=C/c1cc(OC)c(OC)c(OC)c1 [METHYL TRIMETHOXYCINNAMATE]	2.8%	0.04	-24.35%	–	–	–	–	–
C[C@@]1(O)CCOC(=O)C1 [MEVALONIC ACID LACTONE]	16.5%	0.26	26.69%	–	–	–	–	–
COC(=O)C1=CO[C@@H](C)[C@H]2CN3CC[C@]4(C(=O)Nc5ccccc54)[C@@H]3C[C@H]12 [MITRAPHYLLINE]	11.1%	0.17	41.31%	–	–	–	–	–
CCC(C)C(NC)C(=O)O (stereo not drawn) [N-METHYLISOLEUCINE]	–	–	-3.51%	–	-0.07	–	-5.2	–
CN1CCC[C@H]1c1cccnc1.O=C(O)C(O)C(O)C(=O)O.O=C(O)C(O)C(O)C(=O)O [NICOTINE BITARTRATE]	-43.3%	-0.52	36.71%	–	–	–	–	–
